Measured values taken from ChEMBL document CHEMBL2074465, “Nonsteroidal anti-inflammatory drugs efficiently reduce the transport and cytotoxicity of adefovir mediated by the human renal organic anion transporter 1” (J Pharmacol Exp Ther, 2000).

Target: T1, Solute carrier family 22 member 6 (Homo sapiens, UniProt Q4U2R8)
T1 sequence (Q4U2R8 whole entry): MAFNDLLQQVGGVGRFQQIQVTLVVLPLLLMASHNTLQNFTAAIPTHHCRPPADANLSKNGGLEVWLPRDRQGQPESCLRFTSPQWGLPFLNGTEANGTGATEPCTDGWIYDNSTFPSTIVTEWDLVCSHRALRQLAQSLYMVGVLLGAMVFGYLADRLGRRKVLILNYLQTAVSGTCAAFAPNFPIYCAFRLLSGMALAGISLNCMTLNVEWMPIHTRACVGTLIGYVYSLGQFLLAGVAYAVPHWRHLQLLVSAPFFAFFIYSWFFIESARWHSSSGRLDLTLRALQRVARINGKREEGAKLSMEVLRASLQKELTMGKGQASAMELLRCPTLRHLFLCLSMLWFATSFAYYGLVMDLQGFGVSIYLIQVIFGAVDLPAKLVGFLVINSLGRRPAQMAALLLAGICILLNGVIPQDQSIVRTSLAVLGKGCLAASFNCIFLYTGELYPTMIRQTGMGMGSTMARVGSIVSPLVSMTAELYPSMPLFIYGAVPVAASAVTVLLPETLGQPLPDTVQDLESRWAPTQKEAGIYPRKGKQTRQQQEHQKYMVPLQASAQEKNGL
Assay: TP_TRANSPORTER: uptake in OAT1-expressing CHO cells
Assay type: functional, cell-based
Details: hamster

Activity: is not a substrate [-]
Structure (SMILES): CC(C(=O)O)c1cccc(C(=O)c2ccccc2)c1 (stereo unspecified) [KETOPROFEN]
